# Source: the supplement of paper PMC10307832
# What was measured:
# Assay in all cases: relative viability (nuclei count vs DMSO), 5 days (fraction); higher = more cells survive
# TPCA-1 + Alpelisib = compound: C1=CC(=CC=C1C2=CC(=C(S2)NC(=O)N)C(=O)N)F [TPCA-1] + Cc1nc(NC(=O)N2CCC[C@H]2C(N)=O)sc1-c1ccnc(C(C)(C)C(F)(F)F)c1 [Alpelisib] (partner 2 µM)
# Procedure, shortened: (§1)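 Relative viability is defined as nuclei in treated wells over nuclei in vehicle wells. Duplicate plates were run and medians reported. Lung cancer cell lines in 1536-well plates were dosed by pin tool one day after seeding, with one drug or with a fixed anchor-drug dose plus five library-drug doses (not always all listed) in √10 steps, and nuclei were counted after 5 days.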
# TPCA-1 + Decitabine = compound: C1=CC(=CC=C1C2=CC(=C(S2)NC(=O)N)C(=O)N)F [TPCA-1] + Nc1ncn([C@H]2C[C@H](O)[C@@H](CO)O2)c(=O)n1 [Decitabine] (partner 2 µM)
# Procedure, shortened: as §1
# [1] = compound: C[C@]12O[C@H](C[C@]1(O)CO)n1c3ccccc3c3c4c(c5c6ccccc6n2c5c31)CNC4=O [Lestaurtinib] + CC(=O)c1c(C)c2cnc(Nc3ccc(N4CCNCC4)cn3)nc2n(C2CCCC2)c1=O [Palbociclib] (partner 0.5 µM)
# Procedure, shortened: as §1
# [2] = compound: C[C@]12O[C@H](C[C@]1(O)CO)n1c3ccccc3c3c4c(c5c6ccccc6n2c5c31)CNC4=O [Lestaurtinib] + O=C(CCCCCCC(=O)Nc1ccccc1)NO [Vorinostat] (partner 1 µM)
# Procedure, shortened: as §1
Cell Line,relative viability (TPCA-1 + Alpelisib; first compound 0.04 µM),relative viability (TPCA-1 + Alpelisib; first compound 0.1265 µM),relative viability (TPCA-1 + Alpelisib; first compound 0.4 µM),relative viability (TPCA-1 + Alpelisib; first compound 1.265 µM),relative viability (TPCA-1 + Alpelisib; first compound 4 µM),relative viability (TPCA-1 + Decitabine; first compound 0.04 µM),relative viability (TPCA-1 + Decitabine; first compound 0.1265 µM),relative viability (TPCA-1 + Decitabine; first compound 0.4 µM),relative viability (TPCA-1 + Decitabine; first compound 1.265 µM),relative viability (TPCA-1 + Decitabine; first compound 4 µM),relative viability ([1]; first compound 0.005 µM),relative viability ([1]; first compound 0.01581 µM),relative viability ([1]; first compound 0.05 µM),relative viability ([1]; first compound 0.1581 µM),relative viability ([1]; first compound 0.5 µM),relative viability ([2]; first compound 0.005 µM),relative viability ([2]; first compound 0.01581 µM),relative viability ([2]; first compound 0.05 µM),relative viability ([2]; first compound 0.1581 µM),relative viability ([2]; first compound 0.5 µM)
NCI-H3122,0.846,0.728,0.92,0.947,0.74,0.424,0.404,0.424,0.496,0.455,0.201,0.21,0.2,0.229,0.22,1.16,1.11,0.858,1.14,0.442
NCI-H1395,1.16,0.997,1.14,1.07,0.941,0.791,0.694,0.753,0.797,0.695,0.646,0.617,0.547,0.573,0.477,0.696,0.902,0.607,0.47,0.343
NCI-H2009,1.2,1.13,1.13,1.1,1.2,0.412,0.392,0.377,0.423,0.392,0.221,0.226,0.183,0.194,0.133,0.782,0.759,0.665,0.689,0.501
NCI-H1651,1.03,0.82,0.988,1.09,0.863,0.66,0.578,0.578,0.546,0.217,0.536,0.594,0.551,0.569,0.497,0.555,0.617,0.539,0.58,0.23
HARA,0.952,0.675,1.01,0.725,0.6,0.576,0.54,0.844,0.462,0.492,0.233,0.32,0.278,0.234,0.243,0.559,0.648,0.53,0.311,0.104
NCI-H1944,0.859,0.799,0.815,0.744,0.658,0.526,0.446,0.477,0.475,0.383,0.334,0.332,0.286,0.248,0.292,0.556,0.521,0.693,0.408,0.205
NCI-H2347,1.14,0.969,1.03,0.817,0.917,0.578,0.551,0.664,0.641,0.619,0.433,0.438,0.535,0.48,0.501,0.508,0.643,0.555,0.469,0.503
201T,1,0.998,1.01,1.08,0.983,0.901,0.868,0.889,0.869,0.941,0.398,0.45,0.364,0.405,0.399,1.03,1.12,1.01,0.927,0.771
PC-14,0.952,0.879,0.965,0.787,0.75,0.265,0.24,0.231,0.255,0.323,0.509,0.594,0.356,0.415,0.115,0.718,0.558,0.509,0.324,0.0543
NCI-H727,0.591,0.485,0.597,0.504,0.507,0.946,0.787,0.943,0.788,0.576,0.723,0.713,0.719,–,0.716,1.23,1.35,1.17,–,0.625
COR-L23,0.904,0.812,0.72,0.632,0.421,0.498,0.394,0.466,0.385,0.403,0.337,0.319,0.223,0.248,0.11,0.618,0.433,0.294,0.212,0.115
HOP-62,1.05,0.602,0.898,0.874,0.914,0.261,0.198,0.215,0.198,0.214,0.491,0.539,0.496,0.468,0.335,0.632,0.767,0.494,0.426,0.295
NCI-H1915,1.11,1.05,1.08,1.03,0.936,0.266,0.253,0.258,0.255,0.251,0.564,0.719,0.481,0.323,0.231,0.512,0.489,0.427,0.325,0.162
BEN,1.14,0.842,1.13,1.19,0.806,0.875,0.625,0.813,0.838,0.387,0.483,0.537,0.467,0.432,0.399,0.631,0.704,0.59,0.477,0.309
NCI-H1437,0.959,0.869,1.04,0.85,0.755,0.601,0.566,0.572,0.566,0.669,0.35,0.371,0.369,0.364,0.415,0.819,1,0.843,0.731,0.525
EMC-BAC-2,0.791,0.705,0.721,0.724,0.589,0.997,0.972,0.939,0.852,0.898,0.505,0.51,0.456,0.353,0.305,0.32,0.703,0.337,0.317,0.222

Cell Line,relative viability (TPCA-1 + Alpelisib; first compound 0.04 µM),relative viability (TPCA-1 + Alpelisib; first compound 0.1265 µM),relative viability (TPCA-1 + Alpelisib; first compound 0.4 µM),relative viability (TPCA-1 + Alpelisib; first compound 1.265 µM),relative viability (TPCA-1 + Alpelisib; first compound 4 µM),relative viability (TPCA-1 + Decitabine; first compound 0.04 µM),relative viability (TPCA-1 + Decitabine; first compound 0.1265 µM),relative viability (TPCA-1 + Decitabine; first compound 0.4 µM),relative viability (TPCA-1 + Decitabine; first compound 1.265 µM),relative viability (TPCA-1 + Decitabine; first compound 4 µM),relative viability ([1]; first compound 0.005 µM),relative viability ([1]; first compound 0.01581 µM),relative viability ([1]; first compound 0.05 µM),relative viability ([1]; first compound 0.1581 µM),relative viability ([1]; first compound 0.5 µM),relative viability ([2]; first compound 0.005 µM),relative viability ([2]; first compound 0.01581 µM),relative viability ([2]; first compound 0.05 µM),relative viability ([2]; first compound 0.1581 µM),relative viability ([2]; first compound 0.5 µM)
NCI-H647,1.35,1.04,1.23,0.834,0.562,0.475,0.433,0.385,0.4,0.346,0.382,0.201,0.227,0.247,0.164,0.629,0.695,0.391,0.284,0.109
LXF-289,1.07,0.951,1.05,0.955,0.783,0.384,0.345,0.395,0.403,0.34,0.624,0.633,0.443,0.49,0.234,0.64,0.741,0.75,0.472,0.184
LOU-NH91,0.769,0.652,0.736,0.78,0.669,0.835,0.749,0.793,0.792,0.776,0.567,0.524,0.586,0.558,0.522,0.824,0.962,0.646,0.422,0.303
NCI-H23,0.756,0.665,0.705,0.587,0.512,0.319,0.277,0.289,0.317,0.262,0.578,0.624,0.527,0.5,0.274,0.602,0.645,0.549,0.308,0.126
NCI-H1993,0.654,–,0.711,0.633,0.731,0.604,0.541,0.541,0.584,0.508,0.689,0.27,0.717,0.569,0.411,0.823,0.808,0.754,0.455,0.485
HCC-827,1.09,0.933,1.08,0.905,0.491,0.364,0.326,0.317,0.31,0.31,0.533,0.489,0.444,0.382,0.43,0.817,0.961,0.869,0.924,0.244
NCI-H650,1.11,1.02,1.02,0.633,0.859,0.347,0.359,0.338,0.331,0.3,0.315,0.323,0.249,0.236,0.229,0.448,0.427,0.385,0.28,0.149
NCI-H838,0.981,0.882,0.957,0.857,0.716,0.466,0.442,0.532,0.44,0.44,0.209,0.204,0.196,0.194,0.147,0.792,0.724,0.681,0.333,0.172
RERF-LC-KJ,0.974,0.774,0.773,0.733,0.699,0.715,0.598,0.656,0.612,0.548,1.15,1.15,0.845,0.87,0.565,0.56,0.683,0.538,0.588,0.375
NCI-H661,1.01,0.2,0.768,0.546,0.487,0.533,0.58,0.597,0.602,0.436,0.423,0.413,0.445,0.467,0.317,0.873,0.669,0.525,0.4,0.339
HCC-366,0.481,0.362,0.352,0.378,0.185,–,0.285,0.361,0.271,0.322,0.371,0.424,0.471,0.391,0.172,0.351,0.469,0.335,0.317,0.19
SK-LU-1,1.16,0.805,1,0.605,0.452,0.72,0.563,0.627,0.493,0.372,0.333,0.335,0.356,0.3,0.288,0.668,0.667,0.491,0.415,0.277
HCC-44,0.876,0.765,0.838,0.703,0.66,1.1,0.841,0.908,0.879,0.887,0.958,1,1.04,1.1,0.732,1.06,1.13,1.1,1.23,0.446
A-427,1.13,1.04,1.14,1.06,1.06,0.62,0.535,0.591,0.564,0.504,0.506,0.554,0.521,0.444,0.207,0.778,0.995,0.766,0.447,0.208
SW 1573,0.872,0.631,0.659,0.709,0.784,0.621,0.402,0.438,0.677,0.395,0.373,0.385,0.298,0.306,0.113,0.767,0.864,0.488,0.424,0.198
NCI-H322M,0.846,0.74,0.764,0.688,0.785,0.729,0.638,0.74,0.682,0.486,0.473,0.497,–,0.515,0.519,0.764,0.935,–,0.701,0.461
